Test results as given in ChEMBL document CHEMBL1201862, “PubChem BioAssay data set” (2004).
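A five-concentration, 48-hour dose response in 96-well plates underlies each endpoint, interpolated linearly between surrounding concentrations. GI50 is the concentration that inhibits growth by half.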 The source made the active and inactive calls. No stated cut-off is given here; in the data, active = GI50 up to about 1.1 µM and inactive = higher.

Assays:
Test in all cases: NCI anticancer screen, dose series, 48 h
NCI-H460 = tested on: NCI-H460
LOX IMVI = tested on: LOX IMVI
RXF 393 = tested on: RXF 393
IGROV-1 = tested on: IGROV-1
NCI-H23 = tested on: NCI-H23
SN12C = tested on: SN12C
SK-OV-3 = tested on: SK-OV-3
MOLT-4 = tested on: MOLT-4
K562 = tested on: K562
SK-MEL-28 = tested on: SK-MEL-28
SNB-19 = tested on: SNB-19
M19-MEL = tested on: M19-MEL
DLD-1 = tested on: DLD-1
COLO 205 = tested on: COLO 205
SNB-75 = tested on: SNB-75
SF-539 = tested on: SF-539
UACC-257 = tested on: UACC-257
M14 = tested on: M14
HL-60 = tested on: HL-60
HOP-62 = tested on: HOP-62
SW-620 = tested on: SW-620
TK-10 = tested on: TK-10
UO-31 = tested on: UO-31
OVCAR-3 = tested on: OVCAR-3
U-251 = tested on: U-251
HT-29 = tested on: HT-29
NCI-H226 = tested on: NCI-H226
OVCAR-8 = tested on: OVCAR-8
HCT-15 = tested on: HCT-15
KM-20L2 = tested on: KM-20L2
786-0 = tested on: 786-0
RPMI-8226 = tested on: RPMI-8226
KM12 = tested on: KM12
OVCAR-4 = tested on: OVCAR-4
SR = tested on: SR
SK-MEL-2 = tested on: SK-MEL-2
HOP-92 = tested on: HOP-92
DMS-273 = tested on: DMS-273
SF-268 = tested on: SF-268
CCRF-CEM = tested on: CCRF-CEM
A498 = tested on: A498
SF-295 = tested on: SF-295
HOP-18 = tested on: HOP-18
OVCAR-5 = tested on: OVCAR-5
DMS-114 = tested on: DMS-114
SNB-78 = tested on: SNB-78
LXFL 529 = tested on: LXFL 529
HCT-116 = tested on: HCT-116
ACHN = tested on: ACHN
Malme-3M = tested on: Malme-3M
UACC-62 = tested on: UACC-62
CAKI-1 = tested on: CAKI-1
A549 = tested on: A549
SK-MEL-5 = tested on: SK-MEL-5
NCI-H522 = tested on: NCI-H522
EKVX = tested on: EKVX
HCC 2998 = tested on: HCC 2998

Measured: GI50

COc1ccc(/C(=C/n2ccnc2)C(O)c2ccc(OC)c(OC)c2)cc1OC (stereo not drawn)
> 100 µM: HCT-15
inactive: NCI-H460 71.6 µM | LOX IMVI > 100 µM | RXF 393 33.3 µM | IGROV-1 > 100 µM | NCI-H23 > 100 µM | SN12C > 100 µM | SK-OV-3 > 100 µM | MOLT-4 > 100 µM | K562 37.2 µM | SK-MEL-28 > 100 µM | SNB-19 > 100 µM | M19-MEL > 100 µM | DLD-1 > 100 µM | COLO 205 > 100 µM | SNB-75 51.9 µM | SF-539 78 µM | UACC-257 > 100 µM | M14 > 100 µM | HL-60 28.8 µM | HOP-62 > 100 µM | SW-620 > 100 µM | TK-10 > 100 µM | UO-31 > 100 µM | OVCAR-3 > 100 µM | U-251 > 100 µM | HT-29 > 100 µM | NCI-H226 > 100 µM | OVCAR-8 > 100 µM | KM-20L2 > 100 µM | 786-0 > 100 µM | RPMI-8226 70.6 µM | KM12 > 100 µM | OVCAR-4 > 100 µM | SR 12.3 µM | SK-MEL-2 > 100 µM | HOP-92 30.6 µM | DMS-273 > 100 µM | SF-268 > 100 µM | CCRF-CEM 26.7 µM | A498 68.9 µM | SF-295 > 100 µM | HOP-18 > 100 µM | OVCAR-5 > 100 µM

CCCCOP(=O)(OCCCC)/C(C#N)=C/c1ccco1
inactive: NCI-H460 > 100 µM | RXF 393 82.8 µM | IGROV-1 > 100 µM | DMS-114 64.9 µM | NCI-H23 > 100 µM | SK-OV-3 > 100 µM | SK-MEL-28 > 100 µM | SNB-19 94.6 µM | SNB-78 43.9 µM | M19-MEL > 100 µM | COLO 205 > 100 µM | SNB-75 27.2 µM | SF-539 > 100 µM | UACC-257 40.1 µM | LXFL 529 > 100 µM | M14 > 100 µM | HL-60 22.8 µM | HOP-62 > 100 µM | UO-31 25.8 µM | HCT-116 > 100 µM | OVCAR-3 34.7 µM | U-251 > 100 µM | HT-29 > 100 µM | ACHN 95.7 µM | KM-20L2 > 100 µM | RPMI-8226 45.2 µM | Malme-3M 94.2 µM | KM12 52.6 µM | OVCAR-4 91.6 µM | SK-MEL-2 > 100 µM | HOP-92 45.3 µM | UACC-62 > 100 µM | SF-268 45.2 µM | CCRF-CEM 12.4 µM | A498 77.8 µM | SF-295 51.3 µM | OVCAR-5 > 100 µM

O=C(CN(c1ccccc1)c1ccccc1)n1nnc2ccccc21
inactive: NCI-H460 70.8 µM | CAKI-1 53 µM | LOX IMVI 24.2 µM | RXF 393 26.1 µM | IGROV-1 52.4 µM | DMS-114 29.3 µM | NCI-H23 45.1 µM | SN12C 53 µM | SK-OV-3 > 100 µM | MOLT-4 28.2 µM | K562 37.8 µM | SK-MEL-28 37.2 µM | SNB-19 24.5 µM | SNB-78 47.4 µM | M19-MEL 20.6 µM | DLD-1 76.2 µM | COLO 205 36.9 µM | A549 28.6 µM | SNB-75 27 µM | SF-539 24.4 µM | SK-MEL-5 20.7 µM | UACC-257 41.4 µM | NCI-H522 21.4 µM | EKVX 36 µM | LXFL 529 70.6 µM | M14 52.8 µM | HL-60 29.5 µM | HCC 2998 49.8 µM | HOP-62 > 100 µM | SW-620 30 µM | TK-10 > 100 µM | UO-31 14.3 µM | HCT-116 24.3 µM | OVCAR-3 44.6 µM | U-251 26.1 µM | HT-29 44.1 µM | ACHN 36.5 µM | NCI-H226 27.5 µM | OVCAR-8 39.3 µM | KM-20L2 36.4 µM | 786-0 39.2 µM | RPMI-8226 34.8 µM | Malme-3M 46.3 µM | SR 24.8 µM | SK-MEL-2 30.6 µM | UACC-62 41.3 µM | DMS-273 39.9 µM | SF-268 28.4 µM | CCRF-CEM 35 µM | SF-295 74.8 µM | OVCAR-5 > 100 µM
39.7 µM: HCT-15
